In this assay the target is T1, human HSL (Homo sapiens, UniProt Q05469).
T1 construct: overlapping PCR to generate a full length human HSL ORF with a 3′-His6 tag; His6 (C); made in house; host or cells: High 5 insect cells (baculovirus, pFast-BAC)
T1 sequence (Q05469 1-1076): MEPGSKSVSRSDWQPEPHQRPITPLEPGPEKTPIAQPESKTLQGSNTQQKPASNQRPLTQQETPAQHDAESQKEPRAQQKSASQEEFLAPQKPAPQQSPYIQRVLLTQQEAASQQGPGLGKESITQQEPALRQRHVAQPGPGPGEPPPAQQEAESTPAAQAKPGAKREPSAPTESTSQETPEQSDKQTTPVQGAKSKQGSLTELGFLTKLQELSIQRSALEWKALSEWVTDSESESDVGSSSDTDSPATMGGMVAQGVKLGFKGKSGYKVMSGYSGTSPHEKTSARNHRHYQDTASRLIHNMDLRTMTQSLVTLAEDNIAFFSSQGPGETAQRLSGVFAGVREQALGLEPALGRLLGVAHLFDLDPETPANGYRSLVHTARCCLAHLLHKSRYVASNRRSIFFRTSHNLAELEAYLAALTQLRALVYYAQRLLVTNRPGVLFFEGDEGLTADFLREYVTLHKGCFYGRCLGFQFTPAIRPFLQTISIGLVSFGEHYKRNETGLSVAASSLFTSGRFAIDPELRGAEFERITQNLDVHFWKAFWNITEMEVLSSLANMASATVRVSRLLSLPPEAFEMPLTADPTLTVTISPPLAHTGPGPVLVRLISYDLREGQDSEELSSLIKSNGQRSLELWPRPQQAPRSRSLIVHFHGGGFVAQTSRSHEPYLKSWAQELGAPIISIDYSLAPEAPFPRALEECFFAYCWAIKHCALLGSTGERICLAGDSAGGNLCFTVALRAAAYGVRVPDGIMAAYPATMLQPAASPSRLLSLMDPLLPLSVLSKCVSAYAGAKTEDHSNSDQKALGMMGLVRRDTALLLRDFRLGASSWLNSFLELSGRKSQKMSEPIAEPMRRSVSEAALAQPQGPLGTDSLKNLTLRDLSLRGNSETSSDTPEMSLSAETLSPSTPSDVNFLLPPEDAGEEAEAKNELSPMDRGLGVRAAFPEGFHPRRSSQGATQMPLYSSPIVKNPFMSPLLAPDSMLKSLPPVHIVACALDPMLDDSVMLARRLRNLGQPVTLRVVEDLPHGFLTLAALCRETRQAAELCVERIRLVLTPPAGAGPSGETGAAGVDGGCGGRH
Description: Human Hormone-Sensitive Lipase (HSL) Enzyme Inhibition Assay. It counts as biochemical. The conditions noted are these: colorimetric assay, 2,3-dimercapto-1-propanol tributyrate (DMPT) substrate, 37° C. for 20 minutes, absorbance at 405 nm; read-out: HSL hum IC50. In outline: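 Colorimetric thioester hydrolysis: compounds in DMSO series mixed with DMPT (1.5 mM) in MOPS pH 7.2 with BSA, then baculovirus-expressed His6-tagged full-length human HSL added, 37° C, 20 min. DTNB plus detergents added, 15 min room temperature, absorbance at 405 nm.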

What is called pIC50 is −log10 of the IC50, conventionally taken in molar units.

pIC50: −log10 of the molar value.

Consider `O=C1N(c2ccc(OC(F)(F)F)cc2)CCC12CCN(S(=O)(=O)c1cccnc1Cl)CC2` [Example 188, 8-(2-Chloro-pyridine-3-sulfonyl)-2-(4-trifluoromethoxy-phenyl)-2,8-diaza-spiro[4.5]decan-1-one], for which the pIC50 was 7.70.

Take `CNc1ncccc1S(=O)(=O)N1CCC2(CCN(c3ccc(OC(F)(F)F)cc3)C2=O)CC1` [Example 189, 8-(2-Methylamino-pyridine-3-sulfonyl)-2-(4-trifluoromethoxy-phenyl)-2,8-diaza-spiro[4.5]decan-1-one]: the pIC50 was 7.52.

With `CN(C)c1ncccc1S(=O)(=O)N1CCC2(CCN(c3ccc(OC(F)(F)F)cc3)C2=O)CC1` [Example 190, 8-(2-Dimethylamino-pyridine-3-sulfonyl)-2-(4-trifluoromethoxy-phenyl)-2,8-diaza-spiro[4.5]decan-1-one], the pIC50 is 7.70.

With `O=C1N(c2ccc(OC(F)(F)F)cc2)CCC12CCN(S(=O)(=O)c1cccnc1NC1CC1)CC2` [Example 191, 8-(2-Cyclopropylamino-pyridine-3-sulfonyl)-2-(4-trifluoromethoxy-phenyl)-2,8-diaza-spiro[4.5]decan-1-one], the pIC50 was 7.10.

Turning to `O=C1N(c2ccc(OC(F)(F)F)cc2)CCC12CCN(S(=O)(=O)c1cccnc1NCCO)CC2` [Example 192, 8-[2-(2-Hydroxy-ethylamino)-pyridine-3-sulfonyl]-2-(4-trifluoromethoxy-phenyl)-2,8-diaza-spiro[4.5]decan-1-one], the negative-log IC50 (pIC50) is 7.40.

As for `CC(CO)Nc1ncccc1S(=O)(=O)N1CCC2(CCN(c3ccc(OC(F)(F)F)cc3)C2=O)CC1` (stereo not drawn) [Example 193, 8-[2-(2-Hydroxy-1-methyl-ethylamino)-pyridine-3-sulfonyl]-2-(4-trifluoromethoxy-phenyl)-2,8-diaza-spiro[4.5]decan-1-one], the pIC50 was 7.22.

In the case of `COc1ncccc1S(=O)(=O)N1CCC2(CCN(c3ccc(OC(F)(F)F)cc3)C2=O)CC1` [Example 194, 8-(2-Methoxy-pyridine-3-sulfonyl)-2-(4-trifluoromethoxy-phenyl)-2,8-diaza-spiro[4.5]decan-1-one], the negative logarithm of the IC50 (pIC50) was 7.70.

`O=C1N(c2ccc(OC(F)(F)F)cc2)CCC12CCN(S(=O)(=O)c1cccnc1OCc1ccccc1)CC2` [Example 195, 8-(2-Benzyloxy-pyridine-3-sulfonyl)-2-(4-trifluoromethoxy-phenyl)-2,8-diaza-spiro[4.5]decan-1-one]: the pIC50 is 7.30.

As for `O=C1N(c2ccc(OC(F)(F)F)cc2)CCC12CCN(S(=O)(=O)c1cccnc1O)CC2` [Example 196, 8-(2-Hydroxy-pyridine-3-sulfonyl)-2-(4-trifluoromethoxy-phenyl)-2,8-diaza-spiro[4.5]decan-1-one], the negative-log IC50 (pIC50) was 6.64.

As for `Nc1ncccc1S(=O)(=O)N1CCC2(CCN(c3ccc(OC(F)(F)F)cc3)C2=O)CC1` [Example 197, 8-(2-Amino-pyridine-3-sulfonyl)-2-(4-trifluoromethoxy-phenyl)-2,8-diaza-spiro[4.5]decan-1-one], the pIC50 was 7.10.

On to `O=C1N(c2ccc(OC(F)(F)F)cc2)CCC12CCN(S(=O)(=O)c1ccc(Cl)nc1)CC2` [Example 198, 8-(6-Chloro-pyridine-3-sulfonyl)-2-(4-trifluoromethoxy-phenyl)-2,8-diaza-spiro[4.5]decan-1-one], for which the pIC50 was 6.82.

Regarding `O=C1N(c2ccc(OC(F)(F)F)cc2)CCC12CCN(S(=O)(=O)c1cnccc1Cl)CC2` [Example 199, 8-(4-Chloro-pyridine-3-sulfonyl)-2-(4-trifluoromethoxy-phenyl)-2,8-diaza-spiro[4.5]decan-1-one], the pIC50 is 6.85.

As to `COc1ccncc1S(=O)(=O)N1CCC2(CCN(c3ccc(OC(F)(F)F)cc3)C2=O)CC1` [Example 200, 8-(4-M ethoxy-pyridine-3-sulfonyl)-2-(4-trifluoromethoxy-phenyl)-2,8-diaza-spiro[4.5]decan-1-one], the negative logarithm of the IC50 (pIC50) was 6.77.

For `O=C1N(c2ccc(OC(F)(F)F)cc2)CCC12CCN(S(=O)(=O)c1ccccn1)CC2` [Example 201, 8-(Pyridine-2-sulfonyl)-2-(4-trifluoromethoxy-phenyl)-2,8-diaza-spiro[4.5]decan-1-one], the pIC50 was 7.30.

On to `O=C1N(c2ccc(OC(F)(F)F)cc2)CCC12CCN(S(=O)(=O)c1ncccn1)CC2` [Example 202, 8-(Pyrimidine-2-sulfonyl)-2-(4-trifluoromethoxy-phenyl)-2,8-diaza-spiro[4.5]decan-1-one], for which the pIC50 is 6.80.

Turning to `O=C1N(c2ccc(OC(F)(F)F)cc2)CCC12CCN(S(=O)(=O)c1ccncc1)CC2` [Example 203, 8-(Pyridine-4-sulfonyl)-2-(4-trifluoromethoxy-phenyl)-2,8-diaza-spiro[4.5]decan-1-one], the pIC50 is 6.60.

As for `Cc1ccc(S(=O)(=O)N2CCC3(CCN(c4ccc(OC(F)(F)F)cc4)C3=O)CC2)nn1` [Example 204, 8-(6-Methyl-pyridazine-3-sulfonyl)-2-(4-trifluoromethoxy-phenyl)-2,8-diaza-spiro[4.5]decan-1-one], the pIC50 is 6.85.

`O=C1N(c2ccc(OCC(F)(F)F)cc2)CCC12CCN(S(=O)(=O)c1cccnc1)CC2` [Example 205, 8-(Pyridine-3-sulfonyl)-2-[4-(2,2,2-trifluoro-ethoxy)-phenyl]-2,8-diaza-spiro[4.5]decan-1-one]: the pIC50 was 7.22.

For the compound `O=C1N(c2ccc(OCC(F)(F)F)cc2)CCC12CCN(S(=O)(=O)c1cccnc1Cl)CC2` [Example 206, 8-(2-Chloro-pyridine-3-sulfonyl)-2-[4-(2,2,2-trifluoro-ethoxy)-phenyl]-2,8-diaza-spiro[4.5]decan-1-one], the pIC50 was 7.52.

As to `CNc1ncccc1S(=O)(=O)N1CCC2(CCN(c3ccc(OCC(F)(F)F)cc3)C2=O)CC1` [Example 207, 8-(2-Methylamino-pyridine-3-sulfonyl)-2-[4-(2,2,2-trifluoro-ethoxy)-phenyl]-2,8-diaza-spiro[4.5]decan-1-one], the pIC50 is 7.22.

On to `O=C1N(c2ccc(OC(F)(F)F)cc2)CCC12CCN(S(=O)(=O)CC(O)C1CC1)CC2` (stereo not drawn) [Example 208, 8-(2-Cyclopropyl-2-hydroxy-ethanesulfonyl)-2-(4-trifluoromethoxy-phenyl)-2,8-diaza-spiro[4.5]decan-1-one], for which the pIC50 is 6.80.

Consider `COC(CS(=O)(=O)N1CCC2(CCN(c3ccc(OC(F)(F)F)cc3)C2=O)CC1)C1CC1` (stereo not drawn) [Example 209, 8-(2-Cyclopropyl-2-methoxy-ethanesulfonyl)-2-(4-trifluoromethoxy-phenyl)-2,8-diaza-spiro[4.5]decan-1-one], for which the pIC50 was 7.30.

Regarding `O=C1N(c2ccc(OC(F)(F)F)cc2)CCC12CCN(S(=O)(=O)CC1(O)CCCC1)CC2` [Example 210, 8-(1-Hydroxy-cyclopentylmethanesulfonyl)-2-(4-trifluoromethoxy-phenyl)-2,8-diaza-spiro[4.5]decan-1-one], the pIC50 was 7.22.

Turning to `COC1(CS(=O)(=O)N2CCC3(CCN(c4ccc(OC(F)(F)F)cc4)C3=O)CC2)CCCC1` [Example 211, 8-(1-Methoxy-cyclopentylmethanesulfonyl)-2-(4-trifluoromethoxy-phenyl)-2,8-diaza-spiro[4.5]decan-1-one], the pIC50 is 6.89.

As for `CC(C)(O)CS(=O)(=O)N1CCC2(CCN(c3ccc(OC(F)(F)F)cc3)C2=O)CC1` [Example 212, 8-(2-Hydroxy-2-methyl-propane-1-sulfonyl)-2-(4-trifluoromethoxy-phenyl)-2,8-diaza-spiro[4.5]decan-1-one], the pIC50 is 6.70.

In the case of `O=C1N(c2ccc(OC(F)(F)F)cc2)CCC12CCN(S(=O)(=O)/C=C1/CCCO1)CC2` [Example 213, 8-[Dihydro-furan-(2Z)-ylidenemethanesulfonyl]-2-(4-trifluoromethoxy-phenyl)-2,8-diaza-spiro[4.5]decan-1-one], the pIC50 is 6.82.

Regarding `O=C1N(c2ccc(OC(F)(F)F)cc2)CCC12CCN(S(=O)(=O)CC1CCCO1)CC2` (stereo not drawn) [Example 214, 8-(Tetrahydro-furan-2-ylmethanesulfonyl)-2-(4-trifluoromethoxy-phenyl)-2,8-diaza-spiro[4.5]decan-1-one], the negative logarithm of the IC50 (pIC50) was 7.00.

For the origin of these results see patent US8329904B2, “Azacyclic derivatives” (Hoffmann-La Roche Inc., priority 2009, dated 2012).
